According to PubChem BioAssay (NCI):
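Each compound was tested at five concentrations against cells in 96-well plates for 48 hours. The concentration for full growth arrest is given as TGI.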

How the values were obtained:
Test in all cases: inhibition of tumour cell growth, NCI panel, 48 h
SF-268 CNS = tested on: SF-268 CNS
COLO 205 colon = tested on: COLO 205 colon
NCI-H460 lung = tested on: NCI-H460 lung
HS 578T breast = tested on: HS 578T breast
UACC-257 melanoma = tested on: UACC-257 melanoma
CCRF-CEM leukemia = tested on: CCRF-CEM leukemia
U251 CNS = tested on: U251 CNS
MDA-N = tested on: MDA-N
SF-295 CNS = tested on: SF-295 CNS
SK-MEL-2 melanoma = tested on: SK-MEL-2 melanoma
SNB-75 CNS = tested on: SNB-75 CNS
TK-10 renal = tested on: TK-10 renal
NCI-H23 lung = tested on: NCI-H23 lung
ACHN renal = tested on: ACHN renal
OVCAR-5 ovarian = tested on: OVCAR-5 ovarian
HCC-2998 colon = tested on: HCC-2998 colon
NCI/ADR-RES ovarian = tested on: NCI/ADR-RES ovarian
SK-MEL-28 melanoma = tested on: SK-MEL-28 melanoma
SW-620 colon = tested on: SW-620 colon
MDA-MB-435 = tested on: MDA-MB-435
MALME-3M melanoma = tested on: MALME-3M melanoma
SR leukemia = tested on: SR leukemia
KM12 colon = tested on: KM12 colon
HL-60(TB) leukemia = tested on: HL-60(TB) leukemia
SK-OV-3 ovarian = tested on: SK-OV-3 ovarian
OVCAR-4 ovarian = tested on: OVCAR-4 ovarian
BT-549 breast = tested on: BT-549 breast
HCT-15 colon = tested on: HCT-15 colon
M14 melanoma = tested on: M14 melanoma
NCI-H522 lung = tested on: NCI-H522 lung
K-562 leukemia = tested on: K-562 leukemia
RPMI-8226 leukemia = tested on: RPMI-8226 leukemia
A498 renal = tested on: A498 renal
OVCAR-8 ovarian = tested on: OVCAR-8 ovarian
UACC-62 melanoma = tested on: UACC-62 melanoma
MOLT-4 leukemia = tested on: MOLT-4 leukemia
EKVX NSCLC = tested on: EKVX NSCLC
DU-145 prostate = tested on: DU-145 prostate
SN12C renal = tested on: SN12C renal
OVCAR-3 ovarian = tested on: OVCAR-3 ovarian
SNB-19 CNS = tested on: SNB-19 CNS
786-0 renal = tested on: 786-0 renal
UO-31 renal = tested on: UO-31 renal
CAKI-1 renal = tested on: CAKI-1 renal
PC-3 prostate = tested on: PC-3 prostate
A549 NSCLC = tested on: A549 NSCLC
SF-539 CNS = tested on: SF-539 CNS
IGROV1 ovarian = tested on: IGROV1 ovarian
HT29 colon = tested on: HT29 colon
MDA-MB-231 breast = tested on: MDA-MB-231 breast
LOX IMVI melanoma = tested on: LOX IMVI melanoma
HOP-92 NSCLC = tested on: HOP-92 NSCLC
RXF 393 renal = tested on: RXF 393 renal
NCI-H226 lung = tested on: NCI-H226 lung
SK-MEL-5 melanoma = tested on: SK-MEL-5 melanoma
T-47D breast = tested on: T-47D breast
HCT-116 colon = tested on: HCT-116 colon
HOP-62 NSCLC = tested on: HOP-62 NSCLC
MCF7 breast = tested on: MCF7 breast

`Cc1sc(C)c2c1C(=O)CC2N` (stereo unspecified) was tested, and the TGI (SF-268 CNS) was greater than 57300 nM, the TGI (COLO 205 colon) was 40.1 µM and the TGI (NCI-H460 lung) was greater than 70200 nM. The TGI (HS 578T breast) was 98 µM, the TGI (UACC-257 melanoma) was 33.3 µM and the TGI (CCRF-CEM leukemia) was 6.68 µM. It also gave a TGI (U251 CNS) greater than 100000 nM, a TGI (MDA-N) greater than 57400 nM and a TGI (SF-295 CNS) greater than 100000 nM. It also gave a TGI (SK-MEL-2 melanoma) greater than 100000 nM, a TGI (SNB-75 CNS) greater than 83.1 µM and a TGI (TK-10 renal) of 33.5 µM. For the same compound, the TGI (NCI-H23 lung) was greater than 96200 nM, the TGI (ACHN renal) was 31.2 µM and the TGI (OVCAR-5 ovarian) was greater than 100000 nM. For the same compound, the TGI (HCC-2998 colon) was 35.1 µM, the TGI (NCI/ADR-RES ovarian) was greater than 100000 nM and the TGI (SK-MEL-28 melanoma) was greater than 62500 nM. The TGI (SW-620 colon) was 26.3 µM, the TGI (MDA-MB-435) was 53.6 µM and the TGI (MALME-3M melanoma) was 28.4 µM. The TGI (SR leukemia) was greater than 100 µM, the TGI (KM12 colon) was greater than 46400 nM and the TGI (HL-60(TB) leukemia) was 22.9 µM. The TGI (SK-OV-3 ovarian) was greater than 100000 nM, the TGI (OVCAR-4 ovarian) was greater than 75600 nM and the TGI (BT-549 breast) was 43.7 µM. The TGI (HCT-15 colon) was greater than 58300 nM, the TGI (M14 melanoma) was 27.6 µM and the TGI (NCI-H522 lung) was 10.9 µM. The TGI (K-562 leukemia) was greater than 56.1 µM, the TGI (RPMI-8226 leukemia) was 49.2 µM and the TGI (A498 renal) was greater than 100000 nM. For the same compound, the TGI (OVCAR-8 ovarian) was 44.9 µM, the TGI (UACC-62 melanoma) was greater than 100000 nM and the TGI (MOLT-4 leukemia) was 23.7 µM. For the same compound, the TGI (EKVX NSCLC) was greater than 100000 nM, the TGI (DU-145 prostate) was 30.3 µM and the TGI (SN12C renal) was greater than 58600 nM. It also gave a TGI (OVCAR-3 ovarian) of 32.8 µM, a TGI (SNB-19 CNS) greater than 100000 nM and a TGI (786-0 renal) of 22.5 µM. For the same compound, the TGI (UO-31 renal) was 29.5 µM, the TGI (CAKI-1 renal) was 28.9 µM and the TGI (PC-3 prostate) was greater than 60600 nM. The TGI (A549 NSCLC) was greater than 100000 nM, the TGI (SF-539 CNS) was 14.2 µM and the TGI (IGROV1 ovarian) was greater than 69 µM. It also gave a TGI (HT29 colon) greater than 59.3 µM, a TGI (MDA-MB-231 breast) of 57 µM and a TGI (LOX IMVI melanoma) of 32.2 µM. For the same compound, the TGI (HOP-92 NSCLC) was 40.7 µM, the TGI (RXF 393 renal) was 34.8 µM and the TGI (NCI-H226 lung) was greater than 54900 nM. For the same compound, the TGI (SK-MEL-5 melanoma) was greater than 100000 nM, the TGI (T-47D breast) was greater than 83 µM and the TGI (HCT-116 colon) was 28.9 µM. For the same compound, the TGI (HOP-62 NSCLC) was greater than 100000 nM.
In the case of `CN(C)CCn1c(=O)c2ccc3c4c(nn3CCN(C)C)c3cc([N+](=O)[O-])ccc3n(c1=O)c24`, the TGI (SF-268 CNS) is reported as 942 nM, the TGI (COLO 205 colon) is reported as 0.297 µM and the TGI (NCI-H460 lung) is reported as 176 nM. For the same compound, the TGI (HS 578T breast) was 2.82 µM, the TGI (UACC-257 melanoma) was 1.99 µM and the TGI (CCRF-CEM leukemia) was 0.417 µM. It also gave a TGI (U251 CNS) of 2940 nM, a TGI (MDA-N) of 243 nM and a TGI (SF-295 CNS) of 1050 nM. For the same compound, the TGI (SK-MEL-2 melanoma) was 310 nM, the TGI (TK-10 renal) was 2.01 µM and the TGI (NCI-H23 lung) was 397 nM. For the same compound, the TGI (ACHN renal) was 0.975 µM, the TGI (OVCAR-5 ovarian) was 448 nM and the TGI (HCC-2998 colon) was 0.207 µM. The TGI (NCI/ADR-RES ovarian) was 701 nM, the TGI (SK-MEL-28 melanoma) was 2930 nM and the TGI (SW-620 colon) was 0.979 µM. It also gave a TGI (MDA-MB-435) of 0.219 µM, a TGI (MALME-3M melanoma) of 1.12 µM and a TGI (KM12 colon) of 433 nM. For the same compound, the TGI (HL-60(TB) leukemia) was 0.638 µM, the TGI (SK-OV-3 ovarian) was 959 nM and the TGI (OVCAR-4 ovarian) was 223 nM. For the same compound, the TGI (BT-549 breast) was 3.34 µM, the TGI (HCT-15 colon) was 745 nM and the TGI (M14 melanoma) was 1.29 µM. It also gave a TGI (NCI-H522 lung) of 0.2 µM, a TGI (RPMI-8226 leukemia) of 0.397 µM and a TGI (A498 renal) of 1680 nM. The TGI (OVCAR-8 ovarian) was 0.959 µM, the TGI (UACC-62 melanoma) was 952 nM and the TGI (EKVX NSCLC) was 434 nM. For the same compound, the TGI (DU-145 prostate) was 1.2 µM, the TGI (SN12C renal) was 429 nM and the TGI (OVCAR-3 ovarian) was 2.26 µM. The TGI (SNB-19 CNS) was 1080 nM, the TGI (786-0 renal) was 0.277 µM and the TGI (UO-31 renal) was 0.363 µM. For the same compound, the TGI (CAKI-1 renal) was 0.275 µM, the TGI (PC-3 prostate) was 576 nM and the TGI (A549 NSCLC) was 1230 nM. The TGI (SF-539 CNS) was 2.83 µM, the TGI (IGROV1 ovarian) was 4.5 µM and the TGI (MDA-MB-231 breast) was 0.491 µM. It also gave a TGI (LOX IMVI melanoma) of 1.16 µM, a TGI (RXF 393 renal) of 0.434 µM and a TGI (NCI-H226 lung) of 2350 nM. The TGI (SK-MEL-5 melanoma) was 1980 nM, the TGI (T-47D breast) was 10.8 µM and the TGI (MCF7 breast) was 650 nM. It also gave a TGI (HCT-116 colon) of 0.325 µM and a TGI (HOP-62 NSCLC) of 974 nM.
